# Results as given in patent US20240165112A1, “THERAPY FOR THE TREATMENT OF CANCER” (Bristol-Myers Squibb Company, priority 2022, published 2024).
# pEC50: −log10 of the molar value.
# How the values were obtained:
# A549 cell line = experiment: 2D cell line viability assay (cell confluence); format: cell-based; conditions: Homo sapiens, A549, 96 h, 4 days
# Excerpt: (§1) FIGS. 4A-4E illustrate the effects of Compound 1 on the Potency of Paclitaxel in a 2D Cell Line Viability Assay. […] Data points indicate mean and Standard Deviation of 2 biological replicates. Graphs are representative of at least 2 independent experiments. […] Abbreviations: DMSO, dimethylsulfoxide.
# HT29 cell line = experiment: 2D cell line viability assay (cell confluence); format: cell-based; conditions: Homo sapiens, HT-29, 96 h, 4 days
# Excerpt: as §1
# NCI-H460 cell line = experiment: 2D cell line viability assay (cell confluence); format: cell-based; conditions: Homo sapiens, NCI-H460, 96 h, 4 days
# Excerpt: as §1
# 4T1.2 cell line = experiment: 2D cell line viability assay (cell confluence); format: cell-based, murine; conditions: Mus musculus, 4T1.2, 96 h
# Excerpt: as §1
# EMT6 cell line = experiment: 2D cell line viability assay (cell confluence); format: cell-based, murine; conditions: Mus musculus, EMT6, 96 h, 4 days
# Excerpt: as §1
# [1] = test system: LXFE2478 organoid, NSCLC (squamous subtype); experiment: 3D clonogenic assay in patient derived organoids; format: cell-based, human; conditions: for Combination activity 20 μM Compound 1 (cAUC % reduction): chemotherapy dose titration + 20 μM Compound 1 vs chemotherapy alone
# Method: (§2) Five tumor cell lines (4T1.2, A549, EMT6, NCI-H460, and HT29) were treated with a range of paclitaxel or 5-FU concentrations in the presence of dimethlylsulfoxide (DMSO), 5 μM Compound 1, or 20 μM Compound 1. Cells were imaged 4 days after treatment and percent confluence was assessed by image quantification. EC50 values for cell confluence were used to assess chemotherapy potency. Eleven patient-derived tumor organoids (MAXFTN449, MAXFTN2990, PAXF1657, PAXF2131, CXF1256, CXF2129, CXF2061, LXFE2478, LXFE690, LXFA677, LXFA644) were seeded in a 3D matrix and treated with a range of paclitaxel, 5-FU, SN38, Gemcitabine, oxaliplatin, and carboplatin concentrations in the presence of DMSO, 5 μM Compound 1, or 20 μM Compound 1. After 8 to 13 days in culture, colonies were stained, imaged, and counted. A dose response curve was generated for chemotherapy alone or chemotherapy in combination with 5 or 20 μM Compound 1. Combination activity was defined as a percentage of the area under the chemotherapy dose response curve (cAUC) for Compound 1 combination groups compared to the cAUC of chemotherapy alone.
# (§3) For combination experiments, working stock solutions of all compounds were prepared in DMSO at concentrations of 660-fold the highest test concentration used and stored at −20° C. Platin compounds were prepared freshly on each treatment day. On each day of an experiment, an aliquot of the working stock solutions was used and stored at room temperature prior to and during treatment. First, 1:2 dilutions of 660-fold concentrated working stocks were prepared in DMSO (in case of monotherapy controls), or equal amounts of the compound working stocks were mixed (in case of drug combinations). Then, different dilutions of these 330-fold concentrated solutions were prepared in DMSO to give an 8×2 matrix combination layout with conditions. The DMSO dilutions were further diluted […] into cell culture medium (IMDM, supplemented with 20% (v/v) fetal bovine serum, and 50 μg/mL gentamicin) in an intermediate dilution plate. Finally, 10 μL taken from the intermediate dilution plate were transferred to 140 μL of cells and medium per well of the final assay plate. Thus, the DMSO dilutions used for the mono- and the combination-treatment were diluted 1:660, and the DMSO concentration in the assay was […].
# (§4) Tumors were passaged as subcutaneous xenografts in NMRI nu/nu mice. At a tumor volume of 400 to 1000 mm^3, tumor-bearing mice were euthanized, and tumors were collected under sterile conditions without delay. Tumors were mechanically disaggregated and subsequently incubated with an enzyme cocktail consisting of collagenase type IV (41 U/mL), DNase I (125 U/mL), hyaluronidase type III (100 U/mL), and dispase II (1 U/mL) in RPMI 1640 medium at 37° C. for 60 to 120 minutes. Cells were passed through sieves of 100 μm and 40 μm mesh size, and washed with RPMI 1640 medium. The percentage of viable cells was determined in a Neubauer-hemocytometer using trypan blue exclusion. Aliquots of the cells were frozen down and stored in liquid nitrogen vapor phase. On each day of an experiment, a frozen aliquot of tumor cells was thawed and used for preparation of assay plates.
# (§5) The clonogenic assay was carried out in a 96 well plate format using ultra low attachment plates. For each test, plates were prepared as follows: each test well contained a layer of semi-solid medium with tumor cells (50 μL), and a second layer of medium supernatant with or without test compound (100 μL). The cell layer consisted of […] to 12.5×10^3 tumor cells per well, which were seeded in 50 μL/well cell culture medium (IMDM, supplemented with 20% (v/v) fetal bovine serum, 50 μg/mL gentamicin, and 0.4% (w/v) agar). After 24 hours, the soft-agar layer was covered with 90 μL of the same culture medium without agar, and 10 μL of control medium or test compound after serial dilution in DMSO for the duration of the experiment (continuous exposure, 100 μL drug overlay).
# [2] = test system: MAXFTN449 organoid, breast cancer (triple negative); experiment: 3D clonogenic assay in patient derived organoids; format: cell-based, human; conditions: for Combination activity 5 μM Compound 1 (cAUC % reduction): chemotherapy dose titration + 5 μM Compound 1 vs chemotherapy alone; for Combination activity 20 μM Compound 1 (cAUC % reduction): chemotherapy dose titration + 20 μM Compound 1 vs chemotherapy alone
# Method: as §2, §3, §4, §5
# [3] = test system: MAXFTN2990 organoid, breast cancer (triple negative); experiment: 3D clonogenic assay in patient derived organoids; format: cell-based, human; conditions: for Combination activity 5 μM Compound 1 (cAUC % reduction): chemotherapy dose titration + 5 μM Compound 1 vs chemotherapy alone; for Combination activity 20 μM Compound 1 (cAUC % reduction): chemotherapy dose titration + 20 μM Compound 1 vs chemotherapy alone
# Method: as §2, §3, §4, §5
# [4] = test system: LXFE690 organoid, NSCLC (squamous subtype); experiment: 3D clonogenic assay in patient derived organoids; format: cell-based, human; conditions: for Combination activity 20 μM Compound 1 (cAUC % reduction): chemotherapy dose titration + 20 μM Compound 1 vs chemotherapy alone
# Method: as §2, §3, §4, §5
# [5] = test system: PAXF1657 organoid, pancreatic cancer; experiment: 3D clonogenic assay in patient derived organoids; format: cell-based, human; conditions: for Combination activity 20 μM Compound 1 (cAUC % reduction): chemotherapy dose titration + 20 μM Compound 1 vs chemotherapy alone
# Method: as §2, §3, §4, §5
# [6] = test system: PAXF2131 organoid, Pancreatic cancer; experiment: 3D clonogenic assay in patient derived organoids; format: cell-based, human; conditions: for Combination activity 20 μM Compound 1 (cAUC % reduction): chemotherapy dose titration + 20 μM Compound 1 vs chemotherapy alone
# Method: as §2, §3, §4, §5
# [7] = test system: CXF2061 organoid, colon cancer; experiment: 3D clonogenic assay in patient derived organoids; format: cell-based, human
# Method: as §2, §3, §4, §5
# [8] = test system: CXF2129 organoid, colon cancer; experiment: 3D clonogenic assay in patient derived organoids; format: cell-based, human
# Method: as §2, §3, §4, §5
# [9] = test system: CXF1256 organoid, colon cancer; experiment: 3D clonogenic assay in patient derived organoids; format: cell-based, human
# Method: as §2, §3, §4, §5
# [10] = in the presence of 5 μM Compound 1
# [11] = in the presence of 20 μM Compound 1
# [12] = chemotherapy dose titration + 5 μM Compound 1 vs chemotherapy alone
# [13] = chemotherapy dose titration + 20 μM Compound 1 vs chemotherapy alone
smiles,measurement,setting,value
"CC(=O)O[C@H]1C(=O)[C@@]2(C)[C@H]([C@H](OC(=O)c3ccccc3)[C@]3(O)C[C@H](OC(=O)[C@H](O)[C@@H](NC(=O)c4ccccc4)c4ccccc4)C(C)=C1C3(C)C)[C@]1(OC(C)=O)CO[C@@H]1C[C@@H]2O (relative stereo) [Paclitaxel, (1S,2S,3R,4S,7R,9S,10S,12R,15S)-4,12-diacetoxy-15-{[(2R,3S)-3-(benzoylamino)-2-hydroxy-3-phenylpropanoyl]oxy}-1,9-dihydroxy-10,14,17,17-tetramethyl-11-oxo-6-oxatetracyclo[11.3.1.0˜3,10˜0.0˜4,7˜]heptadec-13-en-2-yl rel-benzoate]",pEC50,A549 cell line; in the absence of Compound 1,8.80
same,pEC50,A549 cell line; [10],8.80
same,pEC50,A549 cell line; [11],9.00
same,pEC50,HT29 cell line; in the absence of Compound 1,8.74
same,pEC50,HT29 cell line; [10],8.72
same,pEC50,HT29 cell line; [11],8.74
same,pEC50,NCI-H460 cell line; in the absence of Compound 1,8.19
same,pEC50,NCI-H460 cell line; [10],8.54
same,pEC50,NCI-H460 cell line; [11],8.64
same,pEC50,"4T1.2 cell line; 4 days after treatment, in the absence of Compound 1",7.32
same,pEC50,"4T1.2 cell line; 4 days, in the presence of 5 μM Compound 1",7.80
same,pEC50,"4T1.2 cell line; 4 days, in the presence of 20 μM Compound 1",8.47
same,pEC50,EMT6 cell line; in the absence of Compound 1,7.72
same,pEC50,EMT6 cell line; [10],8.26
same,pEC50,EMT6 cell line; [11],8.72
same,Combination activity 5 μM Compound 1 (cAUC % reduction),[1]; [12],46%
same,Combination activity 20 μM Compound 1 (cAUC % reduction),[1],45%
same,Combination activity 20 μM Compound 1 (cAUC % reduction),[1]; listed as paclitaxel,45%
same,Combination activity 5 μM Compound 1 (cAUC % reduction),[2],57%
same,Combination activity 20 μM Compound 1 (cAUC % reduction),[2],42%
same,Combination activity 20 μM Compound 1 (cAUC % reduction),[2]; listed as paclitaxel,42%
same,Combination activity 5 μM Compound 1 (cAUC % reduction),[3],63%
same,Combination activity 20 μM Compound 1 (cAUC % reduction),[3],77%
same,Combination activity 20 μM Compound 1 (cAUC % reduction),[3]; listed as paclitaxel,77%
same,Combination activity 5 μM Compound 1 (cAUC % reduction),[4]; [12],87%
same,Combination activity 20 μM Compound 1 (cAUC % reduction),[4],94%
same,Combination activity 20 μM Compound 1 (cAUC % reduction),[4]; listed as paclitaxel,94%
same,Combination activity 5 μM Compound 1 (cAUC % reduction),[5]; [12],50%
same,Combination activity 20 μM Compound 1 (cAUC % reduction),[5],64%
same,Combination activity 20 μM Compound 1 (cAUC % reduction),[5]; listed as paclitaxel,64%
same,Combination activity 5 μM Compound 1 (cAUC % reduction),[6]; [12],58%
same,Combination activity 20 μM Compound 1 (cAUC % reduction),[6],71%
same,Combination activity 20 μM Compound 1 (cAUC % reduction),[6]; listed as paclitaxel,71%
CCc1c2c(nc3ccc(O)cc13)-c1cc3c(c(=O)n1C2)COC(=O)[C@]3(O)CC [SN38],Combination activity 5 μM Compound 1 (cAUC % reduction),[2],58%
same,Combination activity 20 μM Compound 1 (cAUC % reduction),[2],46%
same,Combination activity 5 μM Compound 1 (cAUC % reduction),[3],57%
same,Combination activity 20 μM Compound 1 (cAUC % reduction),[3],74%
same,Combination activity 5 μM Compound 1 (cAUC % reduction),[7]; [12],22%
same,Combination activity 20 μM Compound 1 (cAUC % reduction),[7]; [13],26%
same,Combination activity 5 μM Compound 1 (cAUC % reduction),[8]; [12],44%
same,Combination activity 20 μM Compound 1 (cAUC % reduction),[8]; [13],33%
same,Combination activity 5 μM Compound 1 (cAUC % reduction),[9]; [12],90%
same,Combination activity 20 μM Compound 1 (cAUC % reduction),[9]; [13],91%
